Experimental data: US20080119521A1, “Butyrlcholinesterase Selective Inhibitors” (priority 2004, published 2008)
Like-named read-outs stand apart in the source and are kept apart here.

Legend:
[1] = system: human neuroblastoma cell line SH-SY5Y; assay: Toxicity measurement, LDH release cytotoxicity; type: cell-based; conditions: SH-SY5Y cells, 24 hours exposure
Method: The cytotoxicity effect of the molecules was tested in the human neuroblastoma cell line SH-SY5Y. These cells were cultured in 96-well plates in a 1:1 mixture of Ham's F12 nutrients and essential medium (MEM), supplemented with 10% fetal bovine serum and 1% penicillin/streptomycin, and grown in a 5% CO2 humidified incubator at 37° C.
The cells were plated at 10^4 cells for each well, at least, 48 hours before the toxicity measure. Cells were exposed for 24 hours to the compounds at different concentrations (from 10^−5 to 10^−9), quantitative assessment of cell death was made by measurement of the intracellular enzyme lactate dehydrogenase (LDH) (citotoxicity detection kit, Roche). The quantity of LDH was measured and evaluated in a microplate reader Anthos 2010, at 492 and 620 nm. Controls were taken as 100% viability.

[2] = molecular target: T1, BuChE from human serum (Homo sapiens, UniProt P06276); assay: Butyrylcholinesterase (BuChE) inhibition, Ellman colorimetric method; type: biochemical
T1 construct: 0.1 unit/ml BuChE from human serum; from tissue; host or cells: human serum
T1 sequence (P06276 29-602): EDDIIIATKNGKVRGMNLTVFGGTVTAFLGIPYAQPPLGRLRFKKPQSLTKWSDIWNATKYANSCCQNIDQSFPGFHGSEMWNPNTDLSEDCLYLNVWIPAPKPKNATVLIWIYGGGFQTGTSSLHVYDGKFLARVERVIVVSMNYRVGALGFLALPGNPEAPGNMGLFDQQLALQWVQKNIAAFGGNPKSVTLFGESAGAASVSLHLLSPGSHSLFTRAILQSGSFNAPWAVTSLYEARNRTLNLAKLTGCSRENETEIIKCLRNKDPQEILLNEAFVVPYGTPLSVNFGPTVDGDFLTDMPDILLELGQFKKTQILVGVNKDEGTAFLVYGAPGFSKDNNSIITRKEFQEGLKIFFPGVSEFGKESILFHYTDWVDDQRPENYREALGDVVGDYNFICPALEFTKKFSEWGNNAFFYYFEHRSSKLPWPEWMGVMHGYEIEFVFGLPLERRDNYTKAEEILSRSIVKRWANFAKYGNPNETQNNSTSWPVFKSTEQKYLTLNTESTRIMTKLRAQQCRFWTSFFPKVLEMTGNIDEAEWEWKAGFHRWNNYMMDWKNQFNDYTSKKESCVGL
Method: Butyrylcholinesterase (BuChE) Inhibition (from Human Serum)
BuChE inhibitory activity was evaluated at 30° C. by the colorimetric method reported by Ellman [Ellman, G. L.; Courtney, K. D.; Andres, B.; Featherstone, R. M. Biochem. Pharmacol. 1961, 7, 88-95]. The assay solution consisted of 0.1 unit/ml BuChE from human serum, 0.1 M sodium phosphate buffer pH 8, 0.3 mM 5,5′-dithiobis (2-nitrobenzoic acid) (DTNB, Ellman's reagent), and 0.5 mM butyrylthiocholine iodide as the substrate of the enzymatic reaction. Enzyme activity was determined by measuring the absorbance at 405 nm during 5 minutes with a microplate reader Digiscan 340T. The tested compounds were preincubated with the enzyme for 10 minutes at 30° C. The reaction rate was calculated with, at least, triplicate measurements. The IC50 is defined as the concentration of each compound that reduces a 50% the enzymatic activity with respect to that without inhibitors.

[3] = molecular target: T2, AChE from bovine erythrocytes (Bos taurus, UniProt P23795); assay: Acetylcholinesterase (AChE) inhibition, Ellman colorimetric method; type: biochemical
T2 construct: 0.2 unit/ml AChE (Sigma Chemical Co. from bovine erythrocytes); purchased Sigma Chemical Co; host or cells: bovine erythrocytes
T2 sequence (P23795 31-614 isoform P23795-2 limits assumed): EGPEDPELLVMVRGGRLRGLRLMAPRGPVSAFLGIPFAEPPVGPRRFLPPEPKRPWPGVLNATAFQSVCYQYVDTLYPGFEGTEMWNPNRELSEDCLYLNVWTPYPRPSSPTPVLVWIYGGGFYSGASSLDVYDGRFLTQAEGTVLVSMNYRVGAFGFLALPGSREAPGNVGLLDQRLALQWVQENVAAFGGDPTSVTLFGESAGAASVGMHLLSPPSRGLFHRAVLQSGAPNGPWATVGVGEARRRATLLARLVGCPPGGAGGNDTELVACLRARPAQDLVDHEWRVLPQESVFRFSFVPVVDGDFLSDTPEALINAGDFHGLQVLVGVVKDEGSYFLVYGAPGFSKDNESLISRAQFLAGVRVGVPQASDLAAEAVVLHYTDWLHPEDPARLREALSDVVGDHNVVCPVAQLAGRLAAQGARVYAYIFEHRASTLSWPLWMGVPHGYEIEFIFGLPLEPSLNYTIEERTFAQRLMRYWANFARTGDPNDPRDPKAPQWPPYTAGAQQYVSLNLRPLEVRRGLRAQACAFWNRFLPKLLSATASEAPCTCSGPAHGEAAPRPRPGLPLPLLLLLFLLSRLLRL
Method: Acetylcholinesterase (AChE) Inhibition (from Bovine Erythrocytes)
AChE inhibitory activity was evaluated at 30° C. by the colorimetric method reported by Ellman [Ellman, G. L.; Courtney, K. D.; Andres, B.; Featherstone, R. M. Biochem. Pharmacol. 1961, 7, 88-95]. The assay solution consisted of 0.1 M phosphate buffer pH 8, 0.3 mM 5,5′-dithiobis (2-nitrobenzoic acid) (DTNB, Ellman's reagent), 0.2 unit/ml AChE (Sigma Chemical Co. from bovine erythrocytes), and 0.5 mM acetylthiocholine iodide as the substrate of the enzymatic reaction. The compounds tested were added to the assay solution and pre incubated with the enzyme for 5 min at 30° C. After that period, the substrate was added. The absorbance changes at 405 nm were recorded for 5 min with a microplate reader Digiscan 340T, the reaction rates were compared, and the percent inhibition due to the presence of test compounds was calculated. The reaction rate was calculated with, at least, triplicate measurements, and the percent inhibition due to the presence of test compound was calculated relative to the compound-free control. The compound concentration producing 50% of AChE inhibition (IC50) was determined.

[4] = molecular target: AChE peripheral site (Homo sapiens, UniProt P22303); assay: Propidium competition, fluorescence; type: binding; conditions: 5 μM AChE incubated at least 6 hours, 20 μM propidium iodide, 1 mM Tris/HCl pH 8.0
Sequence of AChE peripheral site (P22303 32-614): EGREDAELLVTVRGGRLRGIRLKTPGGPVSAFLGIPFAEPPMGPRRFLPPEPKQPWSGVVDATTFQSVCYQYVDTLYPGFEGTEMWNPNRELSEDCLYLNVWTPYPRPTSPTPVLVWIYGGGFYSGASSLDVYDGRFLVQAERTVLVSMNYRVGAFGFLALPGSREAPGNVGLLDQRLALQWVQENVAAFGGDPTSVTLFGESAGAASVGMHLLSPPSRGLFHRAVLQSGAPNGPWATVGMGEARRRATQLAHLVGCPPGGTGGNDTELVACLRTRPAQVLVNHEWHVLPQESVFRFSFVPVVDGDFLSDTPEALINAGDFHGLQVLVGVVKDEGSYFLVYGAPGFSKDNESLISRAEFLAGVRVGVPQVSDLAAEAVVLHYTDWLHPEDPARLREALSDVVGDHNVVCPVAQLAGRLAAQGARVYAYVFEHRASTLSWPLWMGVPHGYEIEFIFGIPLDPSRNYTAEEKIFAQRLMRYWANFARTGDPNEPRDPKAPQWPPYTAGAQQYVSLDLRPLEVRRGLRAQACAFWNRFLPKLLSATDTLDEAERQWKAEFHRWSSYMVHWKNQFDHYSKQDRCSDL
Method: Fluorescence was measured in a Fluostar optima plate reader (BMG). Measurements were carried out in 100 μl solution volume, in 96-well plates. The buffer used was 1 mM Tris/HCl, pH 8.0. 5 μM AchE was incubated, at least 6 hours, with the molecules at different concentrations. 20 μM propidium iodide was added 10 min before fluorescence measurement. The excitation wavelength was 485 nm, and that of emission, 620 nm.

Row | SMILES | Toxicity [1] [µM] | IC50 [2] [nM] | IC50 [3] [nM] | Propidium competition [4] [µM] | selectivity with respect to AChE ([2]; BuChE versus AChE) | IC50 ([2]; BuChE from human serum, 30° C., pH 8, 10 min preincubation, butyrylthiocholine iodide substrate, read-out: IC50 BuChE) [nM] | IC50 ([3]; AChE from bovine erythrocytes, 30° C., pH 8, 5 min preincubation, acetylthiocholine iodide substrate, read-out: IC50 AChE) [nM]
1 | O=C(Cc1c[nH]c2ccccc12)NCCC1CCN(Cc2ccccc2)CC1 [Compound 1, N-[2-(1-Benzyl-piperidin-4-yl)-ethyl]-2-(lH-indol-3-yl)-acetamide] | >100 | 0.8 | 200 | 1 | – | – | –
2 | Cn1cc(CC(=O)NCCC2CCN(Cc3ccccc3)CC2)c2ccccc21 [Compound 2, N-[2-(1-Benzyl-piperidin-4-yl)-ethyl]-2-(1-methyl-1H-indol-3-yl)-acetamide] | >100 | 1 | 400 | 100 | – | – | –
3 | Cc1[nH]c2ccccc2c1CC(=O)NCCC1CCN(Cc2ccccc2)CC1 [Compound 3, N-[2-(1-Benzyl-piperidin-4-yl)-ethyl]-2-(2-methyl-1H-indol-3-yl)-acetamide] | >100 | 2 | 200 | 100 | – | – | –
4 | O=C(Cc1c[nH]c2ccc(Br)cc12)NCCC1CCN(Cc2ccccc2)CC1 [Compound 4, N-[2-(1-Benzyl-piperidin-4-yl)-ethyl]-2-(5-bromo-1H-indol-3-yl)-acetamide] | >100 | 0.25 | 250 | 1 | – | – | –
5 | O=C(CCc1c[nH]c2ccccc12)NCCC1CCN(Cc2ccccc2)CC1 [Compound 5, N-[2-(1-Benzyl-piperidin-4-yl)-ethyl]-3-(1H-indol-3-yl)-propionamide] | >100 | 0.05 | 2000 | 100 | 5 orders of magnitude | – | –
6 | O=C(CCCc1c[nH]c2ccccc12)NCCC1CCN(Cc2ccccc2)CC1 [Compound 6, N-[2-(1-Benzyl-piperidin-4-yl)-ethyl]-4-(1H-indol-3-yl)-butyramide] | >100 | 5 | 300 | 100 | – | – | –
7 | O=C(NCCC1CCN(Cc2ccccc2)CC1)OCCc1c[nH]c2ccccc12 [Compound 7, [2-(1-Benzyl-piperidin-4-yl)-ethyl]-carbamic acid 2-(1H-indol-3-yl)-ethyl ester] | >100 | – | – | – | – | 30 | 1000
